Assays:
[1] = biological target: immunoproteasome LMP7/B5i subunit (Homo sapiens, UniProt P28062); assay: Caliper-based proteasome enzymatic activity assay, LMP7; format: biochemical; conditions: human recombinant immunoproteasome 0.3 nM, FAM-labeled peptide substrate 1 μM, rt 3 h; read-out: LMP7 subunit IC50
[2] = biological target: constitutive proteasome β5c unit (Homo sapiens, UniProt P28074); assay: Caliper-based proteasome enzymatic activity assay, β5c; format: biochemical; conditions: human recombinant constitutive proteasome 0.3 nM, FAM-labeled peptide substrate 1 μM, rt 3 h; read-out: β5c subunit IC50

| Structure (SMILES) | IC50 [1] | IC50 [2] |
| --- | --- | --- |
| CC1(C)CCN(C(C)(C)C=C(C#N)C(=O)N2CCC[C@H](OC(=O)N[C@@H](Cc3coc4ccccc34)B(O)O)C2)C1 [Example 68, ((R)-2-(benzofuran-3-yl)-1-(((((S)-1-(2-cyano-4-(3,3-dimethylpyrrolidin-1-yl)-4-methylpent-2-enoyl)piperidin-3-yl)oxy)carbonyl)amino)ethyl)boronic acid] | 0.0318 µM | 1.24 µM |
| CC(C)(C=C(C#N)C(=O)N1C[C@@H](F)[C@H](OC(=O)N[C@@H](Cc2ccccc2)B(O)O)C1)N1CCC(F)(F)C1 [Example 113, ((R)-1-(((((3R,4R)-1-(2-cyano-4-(3,3-difluoropyrrolidin-1-yl)-4-methylpent-2-enoyl)-4-fluoropyrrolidin-3-yl)oxy)carbonyl)amino)-2-phenylethyl)boronic acid] | 0.0023 µM | 0.52 µM |
| CN(C[C@H]1CCCCN1C(=O)C(C#N)=CC(C)(C)N1CCC(F)(F)C1)C(=O)N[C@@H](Cc1ccccc1)B(O)O [Example 64] | > 5 µM | > 5 µM |
| CC(C)(C=C(C#N)C(=O)N1CCCC[C@@H](OC(=O)N[C@@H](Cc2ccc(F)cc2)B(O)O)C1)N1CCOCC1 [Example 137, ((R)-1-(((((R)-1-(2-cyano-4-methyl-4-morpholinopent-2-enoyl)azepan-3-yl)oxy)carbonyl)amino)-2-(4-fluorophenyl)ethyl)boronic acid] | 0.0019 µM | 2.08 µM |
| C[C@@H]1CN(C(C)(C)C=C(C#N)C(=O)N2CCCC[C@@H](OC(=O)N[C@@H](Cc3ccccc3)B(O)O)C2)C[C@H](C)O1 [Example 127, ((R)-1-(((((R)-1-(2-cyano-4-((2S,6R)-2,6-dimethylmorpholino)-4-methylpent-2-enoyl)azepan-3-yl)oxy)carbonyl)amino)-2-phenylethyl)boronic acid] | 0.0024 µM | 2.42 µM |
| C=CC(=O)N1CCCC(C)(OC(=O)N[C@@H](Cc2ccc(F)cc2)B(O)O)C1 (mixture of isomers) [Example 91, ((1R)-1-((((1-acryloyl-3-methylpiperidin-3-yl)oxy)carbonyl)amino)-2-(4-fluorophenyl)ethyl)boronic acid] | > 5 µM | > 5 µM |
| CC1(C)CCN(C(C)(C)C=C(C#N)C(=O)N2CCC[C@H](OC(=O)N[C@@H](Cc3ccc(F)cc3)B(O)O)C2)C1 [Example 72, ((R)-1-(((((S)-1-(2-cyano-4-(3,3-dimethylpyrrolidin-1-yl)-4-methylpent-2-enoyl)piperidin-3-yl)oxy)carbonyl)amino)-2-(4-fluorophenyl)ethyl)boronic acid] | 0.0054 µM | 0.851 µM |
| Cc1ccc(C[C@H](NC(=O)OC[C@H]2CCCN(C(=O)C(C#N)=CC(C)(C)N3CCC(F)(F)C3)C2)B(O)O)cc1 [Example 52, ((R)-1-(((((S)-1-(2-cyano-4-(3,3-difluoropyrrolidin-1-yl)-4-methylpent-2-enoyl)piperidin-3-yl)methoxy)carbonyl)amino)-2-(p-tolyl)ethyl)boronic acid] | 0.0017 µM | 0.715 µM |
| CC(C)(C=C(C#N)C(=O)N1CC[C@@H]1COC(=O)N[C@@H](Cc1ccccc1)B(O)O)N1CCC(F)(F)C1 [Example 54, ((R)-1-(((((R)-1-(2-cyano-4-(3,3-difluoropyrrolidin-1-yl)-4-methylpent-2-enoyl)azetidin-2-yl)methoxy)carbonyl)amino)-2-phenylethyl)boronic acid] | 0.0027 µM | 0.504 µM |
| CC(C)C=C(C#N)C(=O)N1CCC[C@@H]1COC[C@H](NCC(F)(F)F)C(=O)N[C@@H](Cc1ccccc1)B(O)O [Example 23, (R)-1-((S)-3-(((R)-1-(2-cyano-4-methylpent-2-enoyl)pyrrolidin-2-yl)methoxy)-2-(2,2,2-trifluoroethylamino)propanamido)-2-phenylethylboronic acid] | 0.035 µM | 0.45 µM |
| CC(C)(C=C(C#N)C(=O)N1C2CCC1(COC(=O)N[C@@H](Cc1ccccc1)B(O)O)CC2)N1CCOCC1 [Example 81] | 0.0018 µM | 2.22 µM |
| CC1(OC(=O)N[C@@H](Cc2ccc(F)cc2)B(O)O)CCCN(C(=O)C(C#N)=CC(C)(C)N2CCC(F)(F)C2)C1 (mixture of isomers) [Example 94, ((1R)-1-((((1-(2-cyano-4-(3,3-difluoropyrrolidin-1-yl)-4-methylpent-2-enoyl)-3-methylpiperidin-3-yl)oxy)carbonyl)amino)-2-(4-fluorophenyl)ethyl)boronic acid] | 0.238 µM | > 5 µM |
| C[C@H]1CN(C(C)(C)C=C(C#N)C(=O)N2C3CCC2(COC(=O)N[C@@H](Cc2ccccc2)B(O)O)CC3)C[C@H](C)O1 [Example 123, ((R)-1-((((7-(2-cyano-4-((2S,6S)-2,6-dimethylmorpholino)-4-methylpent-2-enoyl)-7-azabicyclo[2.2.1]heptan-1-yl)methoxy)carbonyl)amino)-2-phenylethyl)boronic acid] | 0.0009 µM | 0.832 µM |
| C=CC(=O)N1C[C@H](OC(=O)N[C@@H](Cc2ccccc2)B(O)O)[C@@H](F)C1 [Example 110, ((R)-1-(((((3S,4S)-1-acryloyl-4-fluoropyrrolidin-3-yl)oxy)carbonyl)amino)-2-phenylethyl)boronic acid] | 0.0783 µM | 2.84 µM |
| CC(C)C=C(C#N)C(=O)NCCCC[C@H](NC(=O)c1cc(Cl)ccc1Cl)C(=O)N[C@@H](CC(C)C)B(O)O [Example 3, ((R)-1-((S)-6-(2-cyano-4-methylpent-2-enamido)-2-(2,5-dichlorobenzamido)hexanamido)-3-methylbutyl)boronic acid] | 0.0296 µM | 0.0085 µM |
| CC(C)(C=C(C#N)C(=O)N1CCC[C@@H]1CNC(=O)N[C@@H](Cc1coc2ccccc12)B(O)O)N1CCC(F)(F)C1 [Example 50, ((R)-2-(benzofuran-3-yl)-1-(3-(((R)-1-(2-cyano-4-(3,3-difluoropyrrolidin-1-yl)-4-methylpent-2-enoyl)pyrrolidin-2-yl)methyl)ureido)ethyl)boronic acid] | 0.004 µM | 1.2 µM |
| CC(C)(C=C(C#N)C(=O)N1CC[C@H](COC(=O)N[C@@H](Cc2ccccc2)B(O)O)C1)N1CCOCC1 [Example 99, ((R)-1-(((((S)-1-(2-cyano-4-methyl-4-morpholinopent-2-enoyl)pyrrolidin-3-yl)methoxy)carbonyl)amino)-2-phenylethyl)boronic acid] | 0.0193 µM | 3.76 µM |
| C=CC(=O)N1C[C@@H](F)[C@H](OC(=O)N[C@@H](Cc2ccccc2)B(O)O)C1 [Example 102, ((R)-1-(((((3R,4R)-1-acryloyl-4-fluoropyrrolidin-3-yl)oxy)carbonyl)amino)-2-phenylethyl)boronic acid] | 0.0271 µM | 4.7 µM |
| CC(C)C=C(C#N)C(=O)NCCCC[C@H](NC(=O)[C@@H](NC(=O)C(C)C)[C@@H](C)O)C(=O)N[C@@H](CC(C)C)B(O)O [Example 9, ((R)-1-((S)-6-(2-cyano-4-methylpent-2-enamido)-2-((2S,3R)-3-hydroxy-2-isobutyramidobutanamido)hexanamido)-3-methylbutyl)boronic acid] | 0.0082 µM | 0.0094 µM |
| CC(C)(C=C(C#N)C(=O)N1C2CCC1(COC(=O)N[C@@H](Cc1ccccc1)B(O)O)CC2)N1CC2CC(C1)O2 [Example 132, ((1R)-1-((((7-(4-(6-oxa-3-azabicyclo[3.1.1]heptan-3-yl)-2-cyano-4-methylpent-2-enoyl)-7-azabicyclo[2.2.1]heptan-1-yl)methoxy)carbonyl)amino)-2-phenylethyl)boronic acid] | 0.0008 µM | 1.08 µM |
| C=CC(=O)N1C2CCC1(COC(=O)N[C@@H](CCc1ccccc1)B(O)O)CC2 [Example 71, (R)-(1-((((7-acryloyl-7-azabicyclo[2.2.1]heptan-1-yl)methoxy)carbonyl)amino)-3-phenylpropyl)boronic acid] | 0.528 µM | > 5 µM |
| C=CC(=O)N1CCC[C@H](OC(=O)N[C@@H](Cc2ccccc2)B(O)O)C1 [Example 67, ((R)-1-(((((S)-1-acryloylpiperidin-3-yl)oxy)carbonyl)amino)-2-phenylethyl)boronic acid] | 0.249 µM | > 5 µM |
| CC(C)C=C(C#N)C(=O)N(C)c1cccc(C[C@H](NCC(F)(F)F)C(=O)N[C@@H](CC(C)C)B(O)O)c1 [Example 27, ((R)-1-((S)-3-(3-(2-cyano-N,4-dimethylpent-2-enamido)phenyl)-2-((2,2,2-trifluoroethyl)amino)propanamido)-3-methylbutyl)boronic acid] | 0.072 µM | 0.175 µM |
| C[C@@H]1CN(C(C)(C)C=C(C#N)C(=O)N2C3CCC2(COC(=O)N[C@@H](Cc2ccccc2)B(O)O)CC3)C[C@@H](C)O1 [Example 126, ((R)-1-((((7-(2-cyano-4-((2R,6R)-2,6-dimethylmorpholino)-4-methylpent-2-enoyl)-7-azabicyclo[2.2.1]heptan-1-yl)methoxy)carbonyl)amino)-2-phenylethyl)boronic acid] | 0.0013 µM | 0.967 µM |
| CC(C)(C=C(C#N)C(=O)N1C[C@@H](F)[C@@H](OC(=O)N[C@@H](Cc2ccccc2)B(O)O)C1)N1CCC(F)(F)C1 [Example 125, ((R)-1-(((((3S,4R)-1-(2-cyano-4-(3,3-difluoropyrrolidin-1-yl)-4-methylpent-2-enoyl)-4-fluoropyrrolidin-3-yl)oxy)carbonyl)amino)-2-phenylethyl)boronic acid] | 0.0037 µM | 0.81 µM |
| CC(C)(C=C(C#N)C(=O)N1CCCC[C@H](OC(=O)N[C@@H](Cc2ccccc2)B(O)O)C1)N1CCOCC1 (single isomer, unassigned) [Example 104] | 0.0024 µM | > 5 µM |
| CC(C)(C=C(C#N)C(=O)N1C2CCC1(COC(=O)N[C@@H](Cc1ccc(F)cc1)B(O)O)CC2)N1CCOCC1 [Example 82, (R)-(1-((((7-(2-cyano-4-methyl-4-morpholinopent-2-enoyl)-7-azabicyclo[2.2.1]heptan-1-yl)methoxy)carbonyl)amino)-2-(4-fluorophenyl)ethyl)boronic acid] | 0.0017 µM | 1.38 µM |

Reference: US12312370B2, “Immunoproteasome inhibitors” (Principia Biopharma Inc., priority 2017, dated 2025)
